Source: US10231939B2, “Hydroxytyrosol and oleuropein compositions for induction of DNA damage, cell death and LSD1 inhibition” (priority 2012, dated 2019)
Several values for one entry are separate records, joined by “and”; a condition that tells them apart may be missing. Equal entries are not always repeated.

Assays:
[1] = system: human keratinocytes; assay: mRNA-Sequencing, human keratinocytes; type: cell-based
Method: Human chronic myelogenous leukemia K562 cells (ATCC No. CCL-243) were obtained from the American Type Culture Collection (Manassas, Va., USA) and maintained in complete-[…] Park Memorial Institute (RPMI) 1640 medium supplemented with 20 mmol/L HEPES (pH 7.4; GIBCO-Invitrogen, Carlsbad, Calif., USA), 10% (v/v) fetal bovine serum (FBS), 2 mmol/L L-glutamine (GIBCO-Invitrogen), and 80 units gentamicin (GIBCO-Invitrogen). Cells were cultured in suspension in a humidified atmosphere of 5% (v/v) CO2 at 37° C. and were maintained in exponential growth phase. For maintenance, cells were passaged twice per week and seeded at ratios 1:10. Human neonatal foreskin keratinocytes transfected with the human papilloma virus (HPV) were grown as monolayers in keratinocyte—Serum Free Medium (SFM) medium (GIBCO-Invitrogen) supplemented with L-glutamine, human epidermal growth factor (EGF), and bovine pituitary extract (BPE) at 37° C., 5% (v/v) CO2. Cells were passaged by trypsinisation and seeded at ratio of 1:3. Cells were seeded at densities of 1×10^6/mL in culture flasks (Nalge Nunc, New York, USA) and treated with hydroxytyrosol (0, 20, 100 μM), for 24 hours at 37° C., 5% (v/v) CO2. mRNA sequencing was performed by TRIZOL extraction and library preparation using Illumina kits according to manufacturer's protocols. Next generation sequencing (NGS) was performed at a depth of approximately 20 million mapped reads per sample to determine the effect of hydroxytyrosol on genome-wide gene expression, in human erythroleukemic K562 cells and human keratinocytes (24 hr treatment, 20 and 100 μM). Reads generated by the Illumina base calling software V1.6 were aligned with Burrows Wheeler Aligner to the human transcriptome database curated by RefSeq (Hg18 build). Raw counts were normalized to adjust for slightly differing data volume across lanes giving the widely used score reads per transcript per million reads. These scores were used to determine relative fold changes and the conventionally used ±1.5 fold-change, which is discernible with qRT-PCR, was defined a significant change in expression. The online program MetaCore (GeneGo Inc. St. Joseph, MI, USA) was used for pathway analysis.

[2] = system: K562 cells; assay: Apo-ONE Homogeneous Caspase 3/7 assay, K562; type: cell-based, human
Method: Apoptosis was determined by cell lysis prior to measuring caspase-3/7 enzymatic activity with Apo-ONE Homogeneous Caspase-3/7 Assay kit (Promega, Wis., USA), according to the manufacturer's instructions. Following determination of growth inhibition as described above, Apo-1 substrate/buffer mix was added to each well at a ratio of 1:1 and incubated for 4 hours on a rotating platform in the dark at 22° C. The fluorescence intensity (λex=485 nm and λem=525 nm) was determined on a Victor3 multilabel plate counter (PerkinElmer, Waltham, Mass., USA). Apoptosis was reported as the change in fluorescence over 4 hours and after subtraction of the media control.

[3] = system: K562 cells; assay: Western blotting of histone methylation, K562; type: cell-based, human; settings: K562, 100 μM, 24 hours
[4] = system: PBMC; assay: Western blotting of histone methylation, PBMC; type: cell-based, human; settings: 100 μM, 24 hours
[5] = hydroxytyrosol 24 hr (20 μM per FIG. 18C)

OCCc1ccc(O)c(O)c1 [HT, 4-(2-hydroxyethyl)-1,2-benzenediol]
heme oxygenase 1 (HMOX-1) up-regulated ([1]; hydroxytyrosol): 15 fold
number of genes whose expression is regulated ([1]; hydroxytyrosol): ~3 thousand genes
ELP3 expression Fold Change (UP) [1, 5]: 1.51 fold
HDAC5 expression Fold Change (UP) [1, 5]: 1.81 fold and 1.70 fold
HDAC9 expression Fold Change (UP) [1, 5]: 3.00 fold
HDAC11 expression Fold Change (UP) [1, 5]: 1.65 fold and 1.54 fold
JHDM1D expression Fold Change (UP) [1, 5]: 1.66 fold
KDM2B expression Fold Change (UP) [1, 5]: 1.64 fold and 1.55 fold
KDM3A expression Fold Change (UP) [1, 5]: 1.60 fold
KDM5D expression Fold Change (DOWN) [1, 5]: 2.00 fold
MLL3 expression Fold Change (DOWN) [1, 5]: 2.00 fold
NCOA1 expression Fold Change (UP) [1, 5]: 1.51 fold
PRDM1 expression Fold Change (UP) [1, 5]: 2.67 fold and 4.00 fold
PRDM4 expression Fold Change (UP) [1, 5]: 1.56 fold
PRDM8 expression Fold Change (UP) [1, 5]: 1.85 fold and 1.64 fold
PRDM11 expression Fold Change (UP) [1, 5]: 3.00 fold
PRDM12 expression Fold Change (DOWN) [1, 5]: 1.50 fold
PRMT8 expression Fold Change (DOWN) [1, 5]: 2.00 fold
SETBP1 expression Fold Change (DOWN) [1, 5]: 2.00 fold
SETDB2 expression Fold Change (UP) [1, 5]: 1.75 fold
SETMAR expression Fold Change (UP) [1, 5]: 1.53 fold
SMYD3 expression Fold Change (DOWN) [1, 5]: 1.55 fold
caspase 3/7 apoptotic activity ([2]; K562, hydroxytyrosol 24 hours): significant dose dependent increase
caspase 3/7 mediated apoptosis ([2]; K562, hydroxytyrosol or Formulation 2 (4× diluted), FIG. 25): significantly induce caspase 3/7 mediated apoptosis
histone H3 lysine 9 (H3K9) di-methylation [3]: increased
histone H3 lysine 9 (H3K9) di-methylation [4]: decreased
